Measurements reported in patent US7674471B2, “Topical composition, topical composition precursor, and methods for manufacturing and using” (Skinvisible Pharmaceuticals, Inc., priority 2001, dated 2010).

Experiment: solubility in water or solvents
Excerpt: In addition, β-cyclodextrin is a relatively small molecule with all of its —OH groups lying on the outside of the molecule. If all of the —OH groups formed complexes with pyrrolidone groups, none would be available to promote water solubility.

| Substance | solubility in water |
| --- | --- |
| Dextran-70 | extremely soluble in water |
| Polyvinylpyrrolidone [PVP] | quite water soluble |
